Experimental data from patent EP0400805A1, “Cephalosporin compounds and their use” (Ishimaru, Toshiyasu, priority 1989, dated 1990).

Tests used:
Test in all cases: MIC by agar dilution method
Assay type in all cases: cell-based
Parameters in all cases: unit not given here
Enterobacter cloacae = test system: Enterobacter cloacae
Experimental: (§1) The following Table 1 show minimum inhibitory concentrations (MIC) against Gram-positive and Gram-negative bacteria of representative compounds of the invention. MIC was measured by agar dilution method.

Serratia marcescens = test system: Serratia marcescens
Experimental: as §1

Escherichia coli NIHJ = test system: Escherichia coli NIHJ
Experimental: as §1

Pseudomonas aerugenosa = test system: Pseudomonas aerugenosa
Experimental: as §1

Proteus mirabilis = test system: Proteus mirabilis
Experimental: as §1

[1] = test system: Pseudomonas aerugenosa GN
Experimental: as §1

Bacillus subtilis = test system: Bacillus subtilis
Experimental: as §1

Staph. epidermidis = test system: Staph. epidermidis
Experimental: as §1

Klebsiella pneumoniae = test system: Klebsiella pneumoniae
Experimental: as §1

Salmonella typhi = test system: Salmonella typhi
Experimental: as §1

Staph. aureus Smith = test system: Staph. aureus Smith
Experimental: as §1

Molecule | Minimum Inhibitor Concentration (MIC) (Enterobacter cloacae) | Minimum Inhibitor Concentration (MIC) (Serratia marcescens) | Minimum Inhibitor Concentration (MIC) (Escherichia coli NIHJ) | Minimum Inhibitor Concentration (MIC) (Pseudomonas aerugenosa) | Minimum Inhibitor Concentration (MIC) (Proteus mirabilis) | Minimum Inhibitor Concentration (MIC) [1] | Minimum Inhibitor Concentration (MIC) (Bacillus subtilis) | Minimum Inhibitor Concentration (MIC) (Staph. epidermidis) | Minimum Inhibitor Concentration (MIC) (Klebsiella pneumoniae) | Minimum Inhibitor Concentration (MIC) (Salmonella typhi) | Minimum Inhibitor Concentration (MIC) (Staph. aureus Smith)
Nc1nc(/C(=N/OCc2ccc(O)c(O)c2)C(=O)NC2C(=O)N3C(C(=O)[O-])=C(CSc4cnns4)CS[C@H]23)cs1.[Na+] (stereo partly shown) [Example 5, Sodium 7-[2-(2-aminothiazol-4-yl)-2(Z)-(3,4-dihydroxybenzyloxyimino)acetamido]-3-(1,2,3-thiadiazol-5-yl)thiomethyl-3-cephem-4-carboxylate] | 0.78 | 0.10 | 0.05 | 0.39 | 0.10 | 0.78 | 0.39 | 0.78 | 0.05 | 0.10 | 0.10
Nc1nc(/C(=N/OCc2cc(F)c(O)c(O)c2F)C(=O)NC2C(=O)N3C(C(=O)[O-])=C(CSc4cnns4)CS[C@H]23)cs1.[Na+] (stereo partly shown) [Example 8, Sodium 7-[2-(2-aminothiazol-4-yl)-2(Z)-(2,5-difluoro-3,4-dihydroxybenzyloxyimino)acetamido]-3-(1,2,3-thiadiazol-5-yl)thiomethyl-3-cephem-4-carboxylate] | 3.13 | < 0.05 | < 0.05 | 0.39 | < 0.05 | 0.78 | 1.56 | 0.20 | < 0.05 | < 0.05 | 0.10
C[n+]1ccc(SCC2=C(C(=O)[O-])N3C(=O)C(NC(=O)/C(=N\OCc4cc(Cl)c(O)c(O)c4Cl)c4csc(N)n4)C3SC2)cc1 (stereo not shown) [Example 3, 7-[2-(2-aminothiazol-4-yl)-2(Z)-(2,5-dichloro-3,4-di hydroxybenzyloxyimino)acetamido]-3-(N-methylpyridin-4-yl)thiomethyl-3-cephem-4-carboxylic acid] | 0.20 | 0.05 | 0.05 | 0.39 | 0.025 | 0.39 | 0.78 | 0.39 | 0.05 | 0.39 | 0.39
Sodium 7-[2-(2-aminothiazol-4-yl)-2(Z)-(3,4-dihydroxybenzyloxyimino)acetamido]-3-(5-methyl-2-tetrazol-2-yl)thiomethyl-3-cephem-4-carboxylate [Example 6] | 1.56 | 0.20 | 0.05 | 0.78 | 0.10 | 1.56 | 0.39 | 1.56 | 0.10 | 0.20 | 0.10
Nc1nc(/C(=N/OCc2ccc(O)c(O)c2Cl)C(=O)NC2C(=O)N3C(C(=O)[O-])=C(CSc4cnns4)CS[C@H]23)cs1.[Na+] (stereo partly shown) [Example 2, Sodium 7-[2-(2-aminothiazol-4-yl)-2(Z)-(2-chloro-3,4-dihydroxybenzyloxyimino)acetamido]-3-(1,2,3-thiadiazol-5-yl)thiomethyl-3-cephem-4-carboxylate] | 0.78 | 0.78 | 0.78 | 0.78 | 0.05 | 6.25 | 0.20 | 0.20 | 0.20 | 0.20 | 0.20
Nc1nc(/C(=N/OCc2cc(O)c(O)c(Cl)c2)C(=O)NC2C(=O)N3C(C(=O)O)=C(CSc4cnns4)CSC23)cs1 (stereo not shown) [Example 7] | 6.25 | < 0.05 | < 0.05 | 0.78 | < 0.05 | 1.56 | 1.56 | 0.78 | < 0.05 | < 0.05 | 0.01
Nc1nc(/C(=N/OCc2cc(Cl)c(O)c(O)c2Cl)C(=O)NC2C(=O)N3C(C(=O)[O-])=C(CSc4cnns4)CS[C@H]23)cs1.[Na+] (stereo partly shown) [Example 1, Sodium 7-[2-(2-aminothiazol-4-yl)-2(Z)-(2,5-dichloro-3,4-dihydroxybenzyloxyimino)acetamido]-3-(1,2,3-thiadiazol-5-yl)thiomethyl-3-cephem-4-carboxylate] | 0.20 | 0.10 | 0.05 | 0.39 | 0.05 | 0.39 | 0.78 | 0.20 | 0.05 | 0.10 | 0.10
Nc1nc(/C(=N/OCc2cc(O)c(O)c(F)c2)C(=O)NC2C(=O)N3C(C(=O)O)=C(CSc4cnns4)CSC23)cs1 (stereo not shown) [Example 9, Sodium 7-[2-(2-aminothiazol-4-yl)-2(Z)-(5-fluoro-3,4-dihydroxybenzyloxyimino)acetamido]-3-(l,2,3-thiadiazol-5-yl)thiomethyl-3-cephem-4-carboxylate] | 6.25 | < 0.05 | < 0.05 | 0.78 | < 0.05 | 1.56 | 1.56 | 0.78 | < 0.05 | < 0.05 | 0.10
